Reference: a melting point compilation (Tetko et al.; mined from patent text by program, amines drawn as free bases though some values may be those of a salt)

Row | SMILES | melting point
1 | COc1ccccc1-c1c(C#N)nn(-c2c(Cl)cc(C(F)(F)F)cc2Cl)c1N | 193 °C
2 | O=C1c2c(-c3ccccc3)noc2CCC1CCCN1CCOCC1 (centres undefined) | 86 to 88.5 °C
3 | CCc1ccc(Nc2c(C(=O)NOCCO)ccc(F)c2F)c(Cl)c1 | 142 to 145 °C
4 | Cn1cc(CS(C)=O)c(=O)c2ccc(Cl)cc21 (centres undefined) | 180 to 181 °C
5 | CC(=O)Nc1ccc(S(=O)(=O)Nc2nnc(C)s2)cc1 | 239 to 240 °C
6 | CS(=O)(=O)Nc1ccc(C(=O)C2CCN(CCCOc3ccc([N+](=O)[O-])cc3)CC2)cc1 | 162 to 164 °C
7 | CCCCC(CC)COC(=O)C=CC(=O)NC(N)=O (centres undefined) | 73 to 76 °C
8 | COc1nc(C)c(N2CCCn3c2nc2c(Cl)ccc(C(O)(C4CC4)C4CC4)c23)c(C)n1 | 220 to 221 °C
9 | CN1C(=S)COC1=Nc1cccc(C(F)(F)F)c1 | 84 to 86 °C
10 | Oc1ccc2c(c1)SCCc1c-2n(CCCCCN2CCCC2)c2ccccc12 | 158 °C
11 | CCOC(=O)c1c(O)c2cnc(-c3ccccc3)nc2n(CCOC)c1=O | 178 to 179 °C
12 | CN(CCc1c[nH]c2ccc(CNS(C)(=O)=O)cc12)C(=O)OCc1ccccc1 | 118 to 120 °C
13 | CC1(CSc2ccc(Cl)cc2)COC2(CCCCCCCCCCC2)OO1 (centres undefined) | 93 to 94 °C
14 | CN(N)c1nc(C(F)(F)F)nc2ccccc12 | 130 to 132 °C
15 | COC(=O)CCCc1cc2nc(Cl)ccc2n1S(=O)(=O)c1ccc(F)c(F)c1 | 96 to 98 °C
16 | O=C(O)Cn1ncc2c(=O)n3c(nc21)SCC3 | 212 to 214 °C
17 | CC(=O)N(CC(=O)N1c2ccccc2N(Cc2ccccc2)C(=O)[C@H]2CCC[C@H]21)Cc1ccccc1 (relative stereo) | 179 to 181 °C
18 | COc1cc(C2CN(c3cc4c(cc3F)ncc3c4c(=O)c(C(=O)O)cn3C)CCN2)ccc1OCc1ccccc1 (centres undefined) | 280 °C
19 | CC(C)c1cc2c(-c3nc4cnccc4[nH]3)ccc(OC(F)F)c2o1 | 201 °C
20 | C=CCCCOc1ccc(-c2ccc([N+](=O)[O-])cc2)cc1 | 74 to 76 °C

Row | SMILES | melting point
21 | CC(=O)c1ccccc1CC1CNC(=O)O1 (centres undefined) | 85 to 86 °C
22 | O[C@@H](CNCCOc1ccc2oc(-c3ccon3)cc2c1)COc1ccccc1C(F)(F)F | 90 to 91 °C
23 | CC(=O)N1CC(=O)NC(=O)N1c1cc(Cl)c(Oc2ccc(S(C)(=O)=O)cc2)c(Cl)c1 | 267 °C
24 | COc1cccc2c1CCCC2=NNc1nc(-c2ccc(Cl)cc2Cl)cs1 | 200 °C
25 | Cc1nc(-n2cnn(Cc3ccc(F)cc3)c2=O)sc1C(=O)NCc1cn(C)cn1 | 225 to 226 °C
26 | CCC(=O)c1ccc(NC(C)=O)cc1 | 169 to 170 °C
27 | CCOC(=O)c1cn(C2CC2)c2c(C)c(N3CCN(C(=O)OCC)CC3)c(F)cc2c1=O | 200 to 202 °C
28 | COc1ccc2cccc(CCN3C(=O)c4ccccc4C3=O)c2c1 | 154 °C
29 | Cc1nc2cc(C(=O)Nc3ccccc3)ccc2o1 | 138 to 139 °C
30 | CC(O)C(NCc1ccc([N+](=O)[O-])cc1)C(=O)O (centres undefined) | 142 to 143 °C
31 | COc1ccc(C(O)CNCc2cccc(OC)c2OC)cc1OC (centres undefined) | 96 to 97 °C
32 | CC(=O)Nc1cccc(C(=O)NC(C)(C)C)c1 | 194 to 195 °C
33 | Cc1cc(-c2cc(C(F)(F)F)n3ncc(C(=O)Nc4cccc(S(=O)(=O)N5CCOCC5)c4)c3n2)ccc1Cl | 251 °C
34 | COc1ccccc1OCC(=O)NCCO[N+](=O)[O-] | 63 to 64 °C
35 | O=C(O)C(c1ccccc1)n1c(=O)c(=O)[nH]c2ccccc21 (centres undefined) | 242 to 244 °C
36 | CNC(=O)NC(=O)C(CC1CCCC1)c1ccc(C(F)(F)F)c(F)c1 (centres undefined) | 187 to 189 °C
37 | Cc1ccc2c(c1)c1c(CC(=O)N(C)C)nn(-c3ccccc3)c(=O)c1n2C | 209 to 210 °C
38 | CC12CCC(=O)C=C1CCN(C(=O)OCc1ccccc1)C2 (centres undefined) | 128 °C
39 | CC(C)(C)OC(=O)NC(Cc1c[nH]cn1)C(=O)N1CCCC1C(N)=O (centres undefined) | 97 to 101 °C
